{"source": "paper PMC11430712", "about": "“The Endocannabinoid Peptide RVD-Hemopressin Is a TRPV1 Channel Blocker” (Biomolecules, 2024)", "molecules": {"B1": {"name": "RVD-hemopressin (peptide)", "peptide": "RVDPVNFKLLSH"}}, "key": {"[1]": {"system": "TRPV1 channel", "set-up": "method as in 4 sources, ref [12]; anandamide and 2-AG ref [13],[14],[15],[16] ||| ref [88],[89] = [88]; PMID 27281200; doi:10.1038/nature17964; 88. Gao Y. Cao E. Julius D. Cheng Y. TRPV1 structures in nanodiscs reveal mechanisms of ligand and lipid action Nature 2016 534 347 351 10.1038/nature17964 27281200 PMC4911334 || [89]; PMID 37117175; doi:10.1038/s41467-023-38162-9; 89. Neuberger A. Oda M. Nikolaev Y.A. Nadezhdin K.D. Gracheva E.O. Bagriantsev S.N. Sobolevsky A.I. Human TRPV1 structure and inhibition by the analgesic SB-366791 Nat. Commun. 2023 14 2451 10.1038/s4 ||| ref [90] = [90]; PMID 38698206; doi:10.1038/s41594-024-01299-2; 90. Arnold W.R. Mancino A. Moss F.R. Frost A. Julius D. Cheng Y. Structural basis of TRPV1 modulation by endogenous bioactive lipids Nat. Struct. Mol. Biol. 2024 1 9 10.1038/s41594-024-01299-2 3869820 ||| ref [67] = [67]; PMID 29117570; doi:10.1016/j.celrep.2017.10.063; 67. Nersesyan Y. Demirkhanyan L. Cabezas-Bratesco D. Oakes V. Kusuda R. Dawson T. Sun X. Cao C. Cohen A.M. Chelluboina B. Oxytocin Modulates Nociception as an Agonist of Pain-Sensing TRPV1 Cell Rep. 2", "settings": "cited from earlier work; for TRPV1 activation: capsaicin ref [12], anandamide and 2-AG ref [13],[14],[15],[16]; for TRPV1 channel state: vanilloid pocket, ref [90]", "from_the_text": "The transient receptor potential (TRP) channels family involves several subfamilies, including the vanilloid (TRPVs) group. TRPV1, a member of the TRPV subfamily, is a non-selective cationic homotetramer channel. It is known to be activated by various stimuli, including temperature, capsaicin (the principal compound in chili peppers), and endocannabinoids such as anandamide (AEA) and 2-arachidonoylglycerol (2-AG). The TRPV1 channel protein is found in the central (CNS) and peripheral nervous system (PNS). In the CNS, TRPV1 is expressed in the prefrontal cort ... || Molecular dynamics (MD) simulations allow studying protein dynamics at an atomic level under physiological conditions, enhancing our understanding of various proteins, including ion channels like TRPV1 [82]. These simulations provide insight into their function, conformational changes, and interactions with different ligands."}, "[2]": {"settings": "individuals with osteoarthritis; ref [99]; cited from earlier work", "from_the_text": "Capsaicin creams and patches have been used in the treatment of muscle pain, neuropathic pain, arthritis, and migraines. […] CNTX-4975 has been developed as a treatment option for pain in individuals with osteoarthritis."}, "[3]": {"settings": "ref [106]; cited from earlier work", "from_the_text": "Chronic pain is often accompanied by the development of depression. […] However, a significant challenge in utilizing RVD-Hp as a therapeutic agent lies in the inherent sensitivity of peptides to enzymatic degradation. […] Developing carriers that can stabilize RVD-Hp and facilitate its delivery to the brain is essent ..."}, "[4]": {"target": "T1, human TRPV1 channel (Homo sapiens, UniProt Q8NER1)", "T1 construct": "host or cells: HEK293", "T1 sequence (Q8NER1 whole entry)": "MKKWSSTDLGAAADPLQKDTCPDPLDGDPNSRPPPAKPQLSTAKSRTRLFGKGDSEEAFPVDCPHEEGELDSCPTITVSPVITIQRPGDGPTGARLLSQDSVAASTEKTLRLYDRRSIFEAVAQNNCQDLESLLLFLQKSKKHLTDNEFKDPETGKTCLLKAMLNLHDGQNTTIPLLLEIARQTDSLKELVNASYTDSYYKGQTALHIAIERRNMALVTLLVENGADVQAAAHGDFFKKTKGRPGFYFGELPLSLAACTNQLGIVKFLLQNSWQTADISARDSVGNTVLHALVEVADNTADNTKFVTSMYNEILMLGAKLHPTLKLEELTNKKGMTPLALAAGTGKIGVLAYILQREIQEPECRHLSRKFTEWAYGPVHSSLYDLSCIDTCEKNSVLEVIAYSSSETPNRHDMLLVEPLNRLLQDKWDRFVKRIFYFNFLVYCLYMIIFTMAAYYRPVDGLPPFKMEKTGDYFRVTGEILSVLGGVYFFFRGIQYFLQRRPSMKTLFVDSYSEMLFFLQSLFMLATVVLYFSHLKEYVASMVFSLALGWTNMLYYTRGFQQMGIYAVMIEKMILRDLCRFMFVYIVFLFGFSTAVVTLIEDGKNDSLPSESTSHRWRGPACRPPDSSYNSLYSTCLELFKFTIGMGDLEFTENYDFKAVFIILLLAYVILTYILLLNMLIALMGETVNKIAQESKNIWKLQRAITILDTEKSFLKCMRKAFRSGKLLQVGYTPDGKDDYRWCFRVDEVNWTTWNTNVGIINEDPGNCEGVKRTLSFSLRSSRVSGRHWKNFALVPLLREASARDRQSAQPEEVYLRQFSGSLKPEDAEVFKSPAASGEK", "experiment": "Whole-cell voltage-clamp recording of TRPV1 currents, HEK293 cells with human TRPV1-GFP", "assay_type": "cell-based", "method": "(§1) Dr. Alejandro Maureira, Universidad Católica del Maule, Chile, generously provided HEK293 cells. The cells were cultured in T75 flasks (Corning Inc., Corning, NY, USA) in a humidified atmosphere at 37 °C with 5% CO2 in Dulbecco’s Modified Eagle Medium (DMEM) with high glucose (Cytiva, Marlborough, MA, USA), supplemented with 10% fetal bovine serum (Cytiva, Marlborough, MA, USA) and a mixture of 100 IU/mL penicillin and 100 µg/mL streptomycin (Corning Inc., Corning, NY, USA) in a CO2CELL incubator (MMM Group, Munich, Germany). This procedure was used to maintain the cells for all of the experiments.\n(§2) HEK293 cells were transfected with the human TRPV1 channel coupled to GFP in its C-terminus (TRPV1-GFP, catalog #: RG217653, Origene, Rockville, MD, USA). […] Transfections were conducted using Lipofectamine 3000 (Invitrogen, Waltham, MA, USA), according to the manufacturer’s instructions. Experimental protocols were performed 24 h post-transfection.\nUntransfected and transfected HEK293 cells with the human TRPV1-GFP were recorded using a whole-cell voltage clamp. Cells were cultured in 15 mm round coverslips pretreated with 0.1 mg/mL poly-L-lysine (Gibco, Billings, MT, USA) and transfected with TRPV1-GFP plasmid. TRPV1-GFP-positive cells were identified using a 405 nm LED light in a Nikon Eclipse Ts2 inverted microscope. Borosilicate pipettes (nº 1B150F-4, World Precision Instruments, Sarasota, FL, USA) of 2.8’5 MΩ were used. Pipettes were pulled with a P-97 Micropipette Puller (Sutter Instruments, Novato, CA, USA). The extracellular solution contained (in mM) 140 NaCl, 5 KCl, 2 CaCl2, 1 MgCl2, 10 HEPES, and 6 glucose at pH 7.4. The internal solution contained (in mM) 140 CsCl, 4 MgCl2, 10 EGTA, and 10 HEPES-CsOH at pH 7.3. All the experiments were recorded using a HEKA EPC9 amplifier. The holding potential was −80 mV. A 500 ms voltage ramp from −80 to 80 mV was applied to record TRPV1 currents. The sample frequency was 50 kHz, and the signals were filtered at 2.9 kHz using PatchMaster software. Data were analyzed using Clampfit v.7 software (Molecular Devices, San Jose, CA, USA). The extracellular solution and ligands were administered using a VC-8 perfusion system (~2 mL/s, Warner Instruments, Holliston, MA, USA). We used capsaicin (Cayman Chemicals, nº 92350), SB366791 (nº 11019, Cayman Chemicals, Ann Arbor, MI, USA), and RVD-Hp (Synbio Technologies, Monmouth Junction, NJ, USA). We used dimethyl sulfoxide (DMSO, Sigma-Aldrich, St. Louis, MO, USA) and untransfected cells as controls. Electrophysiological recordings were performed at room temperature.\n(§3) The data were analyzed and plotted using GraphPad software v10.0.2. We used the Shapiro–Wilk test to determine the data distribution. […] Statistically significant values were considered when p values were * p < 0.05, ** p < 0.01, *** p < 0.001, and **** p < 0.0001."}, "[5]": {"system": "rats", "settings": "cited from earlier work", "from_the_text": "Despite this, evidence of a direct interaction between Hp and the TRPV1 channel is lacking. We speculate that Hp binds and activates TRPV1, possibly engaging the same binding site as RVD-Hp. […] Thus, RVD-Hp emerges and holds potential as a novel modulator for non-opioid analgesia and anxiety treatment. […] Moreover, since RVD-Hp effectively blocks the open TRPV1 channel, it presents a promising approach to inhibit the population of TRPV1 channels that are pathologically over-activated, thereby ... || (+ 1 further places)"}, "[6]": {"target": "T1, human TRPV1 channel", "experiment": "Calcium imaging (Fura Red-AM), HEK293 cells transfected with hTRPV1-GFP", "assay_type": "cell-based", "settings": "pH 7.4, room temperature", "method": "as §1, §2, §3"}, "[7]": {"target": "human TRPV1 channel coupled to GFP in its C-terminus (human) (UniProt Q8NER1)", "sequence (Q8NER1 whole entry)": "as above"}}, "note": "“Also recorded” adds a separate entry of the source. Peptide text beside a SMILES is read from it.", "data": [{"molecule": "CCCCC/C=C\\C/C=C\\C/C=C\\C/C=C\\CCCC(=O)OC(CO)CO", "note": "[2-arachidonoylglycerol]", "values": [{"measurement": "TRPV1 activation", "setting": "[1]", "value": "activated"}]}, {"molecule": "COc1cc(CNC(=O)CCCC/C=C/C(C)C)ccc1O", "note": "[CNTX-4975]", "values": [{"measurement": "Adverse effects", "setting": "[2]", "value": "nausea, hypotension, oral hypoesthesia, and erythema"}]}, {"molecule": "CC(C)C[C@H](NC(=O)[C@H](CC(C)C)NC(=O)[C@H](CCCCN)NC(=O)[C@H](Cc1ccccc1)NC(=O)[C@H](CC(N)=O)NC(=O)[C@@H](NC(=O)[C@@H]1CCCN1C(=O)[C@H](CC(=O)O)NC(=O)[C@@H](NC(=O)[C@@H](N)CCCNC(=N)N)C(C)C)C(C)C)C(=O)N[C@@H](CO)C(=O)N[C@@H](Cc1cnc[nH]1)C(=O)O", "note": "[RVD-Hp, RVD-hemopressin] (H-RVDPVNFKLLSH-OH)", "values": [{"measurement": "Blood–brain barrier crossing", "setting": "[3]", "value": "cannot cross the blood–brain barrier"}, {"measurement": "Stability in plasma", "setting": "[3]", "value": "low stability in plasma"}, {"measurement": "IC50", "setting": "[4]", "value": 18.6, "unit": "µM"}]}, {"molecule": "COc1cccc(NC(=O)/C=C/c2ccc(Cl)cc2)c1", "note": "[SB366791]", "values": [{"measurement": "Effect on Hp-induced anxious behavior", "setting": "[5]; SB366791 on Hp-induced behavior, ref [8]", "value": "mitigating impact; also recorded: mitigated"}, {"measurement": "TRPV1 binding mode of antagonists", "setting": "[1]; requiring four molecules to induce channel closure, ref [88],[89]", "value": "bind to the vanilloid pocket and compete with capsaicin"}, {"measurement": "Block of Cap-induced increase in intracellular Ca^2+ concentration", "setting": "[6]; 1 µM Cap + 10 µM RVD-Hp (n: 60, * p < 0.032) or 10 µM SB366791 (n: 20, * p < 0.0113), comparison to Cap", "value": "partially blocked"}, {"measurement": "Effect on intracellular Ca^2+ of the compound alone", "setting": "[6]; 10 µM alone, no Cap, RVD-Hp n: 59, SB366791 n: 51", "value": "Neither 10 µM RVD-Hp nor 10 µM SB366791 augmented the intracellular Ca^2+"}, {"measurement": "Current of compound alone compared with Cap-induced TRPV1 current", "setting": "[4]; 10 µM alone vs 1 µM Cap, ***** p < 0.0001", "value": "significantly different from the Cap-induced TRPV1 current"}, {"measurement": "Current of compound alone compared with control", "setting": "[4]; 10 µM alone vs control (n: 7)", "value": "not different from the control"}, {"measurement": "TRPV1 currents induced by the compound alone", "setting": "[4]; 10 µM alone, +80 mV, RVD-Hp n: 4, SB366791 n: 3, room temperature", "value": "Neither 10 µM RVD-Hp nor 10 µM SB366791 alone induced TRPV1 currents"}, {"measurement": "Block of Cap-induced TRPV1 currents", "setting": "[4]; 10 µM with 1 µM Cap, +80 mV, RVD-Hp n: 4 (* p < 0.0214), SB366791 n: 4 (**** p < 0.0001), comparison to capsaicin, room temperature", "value": "blocked"}]}, {"molecule": "CCCCC/C=C\\C/C=C\\C/C=C\\C/C=C\\CCCC(=O)NCCO", "note": "[anandamide]", "values": [{"measurement": "TRPV1 activation", "setting": "[1]", "value": "activated"}]}, {"molecule": "Phosphoinositide", "values": [{"measurement": "TRPV1 channel state", "setting": "[1]", "value": "favor the close state of the TRPV1 channel"}]}, {"molecule": "hemopressin", "values": [{"measurement": "Anxiety-like behavior (Hp in rats)", "setting": "[5]; rats, ref [8],[9]", "value": "induces anxiety-like behavior in rats"}, {"measurement": "Anxiety-/depressive-like behavior", "setting": "[5]; rodent models, ref [8]", "value": "induce anxiogenic and depressive-like behaviors"}]}, {"molecule": "lysophosphatidic acid", "values": [{"measurement": "TRPV1 channel state", "setting": "[1]", "value": "induces channel opening"}]}, {"molecule": "oxytocin", "values": [{"measurement": "TRPV1 activation and nociception (oxytocin)", "setting": "[1]; ref [67]", "value": "activate the TRPV1 channel and modulate nociception"}]}, {"molecule": "phosphatidylinositol 4,5-biphosphate", "values": [{"measurement": "TRPV1 channel state", "setting": "[1]", "value": "favor the close state of the TRPV1 channel"}]}, {"molecule": "B1", "values": [{"measurement": "whole-cell voltage clamp of HEK293 cells expressing TRPV1-GFP: inhibition of the TRPV1 current induced by 1 µM capsaicin (at +80 mV), RVD-Hp at 1, 10, 20 and 50 µM; IC50", "setting": "[7]", "value": 18.6, "unit": "µM"}]}]}
